# Results from US20060293259A1, “Compositions and methods of use of derivatized flavanols” (Mars, Incorporated, priority 2005, published 2006).
# Key:
# [1] = system: human umbilical vein endothelial cell (HUVEC); experiment: NO production (NOx in culture medium) by HUVEC; type: cell-based; settings: for effect on NO production, chronic effect test: 5 subsequent doses, each for 24 hours; for effect on NO production, acute effect test: single dose, 2 and 24 hours, 100 nM, and 10 μM
# Procedure: Alkylated compounds, obtained as described in Example 1, were investigated for their effect on nitric oxide (NO) production and vasorelaxation using serum-free human umbilical vein endothelial cell (HUVEC) culture system in vitro. NO production by endothelial cells and relaxation of pre-constricted aortic rings are two main markers for evaluating cardiovascular effects of test compounds.
# HUVECs obtained from a single donor were cultured in serum free, low protein (0.5 g/l), antibiotic-free cell culture medium supplemented with essential growth factors, nutrients and minerals. […] The cell culture medium was substituted with apo-transferrin, superoxide dismutase, and catalase to exclude secondary effects of test compounds involving their auto-oxidation mediated hydrogen peroxide formation.
# (§1) Test compounds were evaluated with respect to their potential to acutely (2 hours) and chronically (5 doses given in a 24 h period) modulate NO production. Positive controls (acetylcholine and/or histamine) and negative control L-NNMA (NO synthase inhibitor) were included in all experiments. Cell counts and total protein were used to assess intra-assay variation. Potential toxic effects of tested compounds were also monitored (MTT reduction was measured).
# NO production was evaluated by measuring the total amount of all major nitric oxide end products (NOx, including nitrate, nitrite, nitrosothiols) present in the cell culture medium. […] The amount of NO released from the culture medium was subsequently evaluated by measuring the chemiluminescence emitted during the stoichiometrical reaction between ozone and NO using NO Analyzer (Sievers Instruments, Inc. Boulder, Colo.).
# The data presented herein were obtained from three experiments and were expressed as the concentration of NO present (in μmol/l) (as NOx) in the cell culture medium+/−standard deviation (SD). The data were corrected for the NOx intrinsically present in the fully supplemented cell culture medium and normalized with respect to the volume of media from which the sample was drawn. Data were analyzed using Student's t-test with a 95% level of confidence. P values equal to or less than […] were defined as statistically significant.
# (§2) For the acute effect test, HUVECs were incubated with a single dose of 4′-O-ethyl (−) epicatechin, 4′-O-methyl (−) catechin, 3′-O-methyl (−) catechin which may be prepared as described in Ex. 1 using (−) catechin as a starting material, for 2 and 24 hours at concentrations of 100 nM, […], and 10 μM at 37 C and 5% CO2.
# For the chronic effect test, HUVECs were incubated with 5 subsequent doses of test compounds, each for 24 hours. After each 24 hour treatment, culture medium was replaced.
# [2] = system: human umbilical vein endothelial cell (HUVEC); experiment: MTT assay for toxic effects in HUVEC; type: cell-based; settings: acute effect test, 100 nM, and 10 μM
# Procedure: as §1, §2
# [3] = system: CD62P on platelets associated with monocytes and neutrophils; experiment: Platelet activation (CD62P, P-selectin) on platelets associated with leukocytes; type: cell-based, human; settings: FIG. 2; collagen 0.125-0.5 μg/ml; 10 min; flavanols 0.3 mM, aspirin 100 μM
# Procedure: (§3) Platelet aggregation was measured using a platelet counting technique, and formation of platelet/monocyte conjugates (P/M) and platelet/neutrophil conjugates (P/N) by flow cytometry. In later experiments the activation state of platelets associated with leukocytes (CD62P) was also measured and also the activation state of the leukocytes themselves (CD11b).
# (§4) Flow cytometry was carried out using commercially available fluorescent labelled antibodies on a Facscan (Becton Dickinson, UK) equipped with a 5 W laser operating at 15 mW power and a wavelength of 488 nm or an LSRII flow cytometer (Becton Dickinson, UK) equipped with an additional red Trigon laser operating at a wavelength of 633 nm.
# Blood was obtained from healthy volunteers, who denied taking any aspirin or non-steroidal anti-inflammatory drugs (NSAID) in the previous 10 days. This blood was dispensed into graduated polystyrene tubes that contained hirudin (final concentration 50 μg/ml) and a small volume of the flavanol under investigation or ethanol as control. […]
# (§5) Platelet-leukocyte conjugate formation was measured in the same stirred samples used to measure platelet aggregation. […] Fluorescence parameters were acquired with logarithmic amplification. Platelet monocyte (P/M) and platelet neutrophil (P/N) conjugates were quantified as median CD42a (FITC) fluorescence of the monocyte (P/M mf) or neutrophil population (P/N mf). Leukocyte activation was measured by CD11b (AlexaFluor647) expression (CD11b-M for monocytes and CD11b-N for neutrophils). Platelet activation (P-selectin expression) was measured by CD62P (PE) positivity of the platelets associated with leukocytes as (CD62P-M on P/M and CD62P-N on P/N).
# From this point on it was decided to include measures of the extent of the activation of both platelets and leukocytes in the conjugates that formed following addition of collagen to blood. P-selectin (CD62P) was measured on the platelets associated with leukocytes in the conjugates that formed. Leukocyte activation was measured as the amount of CD11b that was expressed. […]
# [4] = system: platelet/monocyte conjugates; experiment: Platelet/monocyte conjugate (P/M) formation in whole blood by flow cytometry; type: cell-based, human; settings: collagen 0.125-0.5 μg/ml, 10 min, aspirin 100 μM; for inhibition of platelet/monocyte conjugation (P/M): first experiment (FIG. 1), test flavanols 0.3 mM; for inhibition of P/M: second experiment (FIG. 2), flavanols 0.3 mM
# Procedure: as §3, §4
# (§6) Blood was obtained from healthy volunteers, who denied taking any aspirin or non-steroidal anti-inflammatory drugs (NSAID) in the previous 10 days. This blood was dispensed into graduated polystyrene tubes that contained hirudin (final concentration 50 μg/ml) and a small volume of the flavanol under investigation or ethanol as control. The final concentration of ethanol in the blood was always 0.3%. In some experiments, aspirin (ASA) or saline as control was also included in the tube. The tubes were then capped and inverted three times to ensure adequate mixing then placed in the MSA at 37° C. for 30 min before the experiments were performed, during which time the blood was left undisturbed. A further sample of blood was taken into a commercially prepared vacutainer tube that contained K2EDTA as anticoagulant.
# (§7) Platelet-leukocyte conjugate formation was measured in the same stirred samples used to measure platelet aggregation. Sub samples were taken 4 min or 10 min following the addition of agonist and transferred into the appropriate antibody or antibody mixture. These were then incubated in the dark at room temperature for not less than 20 min. Following red cell lysis and a washing procedure the cell suspensions were applied to either the FACScan or the LSRII flow cytometer. Leukocytes were identified by logical gating from dot plots of forward scatter (cell size) and side scatter (cell granularity) profiles acquired with linear amplification. Monocytes were identified by their forward scatter-side scatter profile and CD14 (PE) positivity, while neutrophils were identified in the same way but were negative for CD14 expression. The “pan” leukocyte marker, CD45 (PerCP) was also used to identify the leukocyte population. Fluorescence parameters were acquired with logarithmic amplification. Platelet monocyte (P/M) and platelet neutrophil (P/N) conjugates were quantified as median CD42a (FITC) fluorescence of the monocyte (P/M mf) or neutrophil population (P/N mf). Leukocyte activation was measured by CD11b (AlexaFluor647) expression (CD11b-M for monocytes and CD11b-N for neutrophils). Platelet activation (P-selectin expression) was measured by CD62P (PE) positivity of the platelets associated with leukocytes as (CD62P-M on P/M and CD62P-N on P/N).
# The FACScan was used to measure the fluorescent probes in experiments where three colors were used together, but the LSRII was needed in order to study four colors. The LSRII is a more sensitive machine and produces higher fluorescence values (mf) than the FACScan. […]
# Blood was obtained from three different volunteers and the platelet aggregation and platelet/leukocyte conjugate formation was measured in response to collagen (0, 0.125, 0.25 and 0.5 μg/ml). […]
# [5] = system: CD11b on monocytes and neutrophils; experiment: Leukocyte activation (CD11b expression) on monocytes and neutrophils; type: cell-based, human; settings: FIG. 2; collagen 0.125-0.5 μg/ml; 10 min; flavanols 0.3 mM, aspirin 100 μM
# Procedure: as §3
# as §4, with “nm. […]” for “nm.”
# as §5, with “P/N). […]” for “P/N).”
# [6] = system: platelet/neutrophil conjugates; experiment: Platelet/neutrophil conjugate (P/N) formation in whole blood by flow cytometry; type: cell-based, human; settings: collagen 0.125-0.5 μg/ml, 10 min, aspirin 100 μM; for inhibition of platelet/neutrophil conjugate formation (P/N): first experiment (FIG. 1), test flavanols 0.3 mM; for inhibition of P/N: second experiment (FIG. 2), flavanols 0.3 mM
# Procedure: as §3, §4, §6, §7
# The FACScan was used to measure the fluorescent probes in experiments where three colors were used together, but the LSRII was needed in order to study four colors. The LSRII is a more sensitive machine and produces higher fluorescence values (mf) than the FACScan. Results obtained on the FACScan cannot be directly compared with the results obtained on the LSRII.
# Blood was obtained from three different volunteers and the platelet aggregation and platelet/leukocyte conjugate formation was measured in response to collagen (0, 0.125, 0.25 and 0.5 μg/ml). In this experiment the highest collagen concentration used previously (1 μg/ml) was replaced with a lower concentration of collagen (0.125 μg/ml) to optimise the inhibition brought about by the different flavanols. In these experiments (+) catechin (Sigma) was used at 1 mM, aspirin (100 μM) and the test flavanols at 0.3 mM with the exception of EP−(0.1 mM) and 4 mCAT (0.05 mM). […]
# platelets in whole blood = experiment: Collagen-induced platelet aggregation in whole blood (platelet counting); type: cell-based, human; settings: aspirin 100 μM; for inhibition of collagen-induced platelet aggregation: first experiment (FIG. 1), collagen 0.125, 0.25, 0.5 μg/ml, 4 and 10 min, test flavanols 0.3 mM, mean of n=9; for inhibition of collagen induced aggregation: second experiment (FIG. 2), collagen 0.125-0.5 μg/ml, 4 min, flavanols 0.3 mM, n=9
# Procedure: as §3
# Blood samples were studied using the Multi-Sample Agitator (MSA) produced by the Medical Engineering Unit (University of Nottingham). The MSA is used to maintain blood samples at 37° C. and to agitate small samples of blood at a stir speed of 1,000 rpm as required.
# as §6
# Following a 30 min pre-incubation period, aliquots of blood (480 μl) were dispensed into small polystyrene tubes each containing a stir bar and stirred for 2 min in the MSA. After 2 min a solution (20 μl) of agonist or vehicle control were added to the tubes. These were then stirred in the MSA for up to 10 min at which time the platelet aggregates were fixed by mixing a small sub sample with fixative solution in a 1:2 ratio (v/v). The platelet count in the fixed samples was determined using the UltraFlo-100 Whole Blood Platelet Counter. Platelet aggregation was calculated as the percentage loss of single platelets with reference to the platelet count of the EDTA sample.
# Blood was obtained from three different volunteers and the platelet aggregation and platelet/leukocyte conjugate formation was measured in response to collagen (0, 0.125, 0.25 and 0.5 μg/ml). In this experiment the highest collagen concentration used previously (1 μg/ml) was replaced with a lower concentration of collagen (0.125 μg/ml) to optimise the inhibition brought about by the different flavanols. In these experiments (+) catechin (Sigma) was used at 1 mM, aspirin (100 μM) and the test flavanols at 0.3 mM with the exception of EP−(0.1 mM) and 4 mCAT (0.05 mM). Aggregation was measured at 4 and 10 min following agonist addition and platelet/leukocyte conjugate formation only at 10 min.
# The absolute response of the blood from the different volunteers to collagen varied. This meant that the relative inhibitory effects of a flavanol was dependent on the volunteer's responsiveness to the particular collagen concentration used. For this reason it was decided that an appropriate means of analysing the results, for comparative purposes, would be to calculate the mean values for each flavanol irrespective of the collagen concentration used. (Because, for each of the three blood samples three concentrations of collagen were used, the results are each the means (±sem) of nine individual values).
# Blood was obtained from three different volunteers and the platelet aggregation (4 min) and platelet/leukocyte conjugate formation (10 min) was measured in response to collagen (0, 0.125, 0.25 and 0.5 μg/ml). At the same time the activation of platelets and leukocytes in the conjugates were measured by incubation with CD62P and CD11b antibodies. In these experiments aspirin was used at a concentration of 100 μM and derivatized flavanols and procyanidins at 0.3 mM with the exception of EP-(0.1 mM) and 4mCAT (0.05 mM). […]
Compound,"effect on NO production, chronic effect test [1]","effect on NO production, acute effect test [1]",toxic effects (MTT assay) [2],inhibition of platelet activation (CD62P) on monocytes and neutrophils [3],inhibition of platelet/monocyte conjugation (P/M) [4],inhibition of leukocyte activation (CD11b on monocytes and neutrophils) [5],inhibition of platelet/neutrophil conjugate formation (P/N) [6],inhibition of P/N [6],inhibition of collagen-induced platelet aggregation (platelets in whole blood),inhibition of collagen induced aggregation (platelets in whole blood),"effect on NO production, chronic effect test ([1]; 10 μM concentration, p=0.004)",inhibition of P/M [4]
3′-O-methyl (−) catechin,no statistically significant effect,no statistically significant effect,did not have toxic effects,–,–,–,–,–,–,–,–,–
"CC(=O)Oc1ccccc1C(=O)O [ASA, acetyl salicylic acid, reference compound]",–,–,–,expected effects,effectively inhibited,no effect,effectively inhibited,expected effects,effectively inhibited,expected effects,–,–
CCOc1ccc([C@H]2Oc3cc(O)cc(O)c3C[C@H]2O)cc1O [4′-O-ethyl (−) epicatechin],–,no statistically significant effect,did not have toxic effects,–,–,–,–,–,–,–,statistically significant increase,–
COc1ccc([C@H]2Oc3cc(O)cc(O)c3C[C@@H]2O)cc1O [4′-O-methyl (−) catechin],no statistically significant effect,no statistically significant effect,did not have toxic effects,–,–,–,–,–,–,–,–,–
"COc1cc(C2Oc3cc(O)cc(O)c3CC2O)ccc1O (stereo not shown) [3mCAT, 3′OMe catechin]",–,–,–,best inhibited,significant effect,–,among the most effective,most effective,significant effect,among the most effective,–,significant effect
"COc1ccc(C2Oc3cc(O)cc(O)c3CC2O)cc1O (stereo not shown) [4mEPCAT, 4′OMe epicatechin]",–,–,–,best inhibited,significant effect,among the most effective,among the most effective,most effective,significant effect,among the most effective,–,significant effect
